Laboratory results published in the supplement of paper PMC10307832.

Assays:
Experiment in all cases: relative viability (nuclei count vs DMSO), 5 days (fraction); higher = more cells survive
Irinotecan + OSI-027 = compound: CCc1c2c(nc3ccc(OC(=O)N4CCC(N5CCCCC5)CC4)cc13)-c1cc3c(c(=O)n1C2)COC(=O)[C@]3(O)CC [Irinotecan] + COc1cccc2cc(-c3nc([C@H]4CC[C@H](C(=O)O)CC4)n4ncnc(N)c34)[nH]c12 [OSI-027] (partner 0.5 µM)
Outline: (§1)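 A single step with final 0.05% Triton X-100, 1% formaldehyde and 1 ug/ml Hoechst fixed the cells and stained nuclei 5 days after treatment. Lung cancer cell lines in 1536-well plates had been treated by pin tool the day after seeding with one drug alone or a fixed anchor-drug dose plus five library-drug doses (not always all listed) in √10 steps, and nuclei were counted on 4× images. Relative viability is the ratio of nuclei in treated wells to nuclei in vehicle wells, taken as the median of duplicate plates.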

Irinotecan + Olaparib = compound: CCc1c2c(nc3ccc(OC(=O)N4CCC(N5CCCCC5)CC4)cc13)-c1cc3c(c(=O)n1C2)COC(=O)[C@]3(O)CC [Irinotecan] + O=C(c1cc(Cc2n[nH]c(=O)c3ccccc23)ccc1F)N1CCN(C(=O)C2CC2)CC1 [Olaparib] (partner 8 µM)
Outline: as §1

MK-8033 + Pictilisib = compound: Cn1cc(-c2cnc3ccc4ccc(CS(=O)(=O)NCc5ccccn5)cc4c(=O)c3c2)cn1 [MK-8033] + CS(=O)(=O)N1CCN(Cc2cc3nc(-c4cccc5[nH]ncc45)nc(N4CCOCC4)c3s2)CC1 [Pictilisib] (partner 1 µM)
Outline: as §1

MK-8033 + Olaparib = compound: Cn1cc(-c2cnc3ccc4ccc(CS(=O)(=O)NCc5ccccn5)cc4c(=O)c3c2)cn1 [MK-8033] + O=C(c1cc(Cc2n[nH]c(=O)c3ccccc23)ccc1F)N1CCN(C(=O)C2CC2)CC1 [Olaparib] (partner 8 µM)
Outline: as §1

Cell Line | relative viability (Irinotecan + OSI-027; first compound 0.6325 µM) | relative viability (Irinotecan + OSI-027; first compound 2 µM) | relative viability (Irinotecan + OSI-027; first compound 6.325 µM) | relative viability (Irinotecan + OSI-027; first compound 20 µM) | relative viability (Irinotecan + Olaparib; first compound 0.6325 µM) | relative viability (Irinotecan + Olaparib; first compound 2 µM) | relative viability (Irinotecan + Olaparib; first compound 6.325 µM) | relative viability (Irinotecan + Olaparib; first compound 20 µM) | relative viability (MK-8033 + Pictilisib; first compound 0.02 µM) | relative viability (MK-8033 + Pictilisib; first compound 0.06325 µM) | relative viability (MK-8033 + Pictilisib; first compound 0.2 µM) | relative viability (MK-8033 + Pictilisib; first compound 0.6325 µM) | relative viability (MK-8033 + Pictilisib; first compound 2 µM) | relative viability (MK-8033 + Olaparib; first compound 0.02 µM) | relative viability (MK-8033 + Olaparib; first compound 0.06325 µM) | relative viability (MK-8033 + Olaparib; first compound 0.2 µM) | relative viability (MK-8033 + Olaparib; first compound 0.6325 µM) | relative viability (MK-8033 + Olaparib; first compound 2 µM)
NCI-H441 | 0.371 | 0.448 | 0.281 | 0.327 | 0.243 | 0.241 | 0.256 | 0.229 | 0.45 | 0.446 | 0.416 | 0.446 | 0.444 | 0.628 | 0.446 | 0.56 | 0.529 | 0.59
ChaGo-K-1 | 0.272 | 0.39 | 0.215 | 0.212 | 0.223 | 0.267 | 0.245 | 0.221 | 0.717 | 0.652 | 0.654 | 0.713 | 0.615 | 0.442 | 0.412 | 0.415 | 0.433 | 0.372
SW 1573 | 0.213 | 0.566 | 0.231 | 0.122 | 0.267 | 0.239 | 0.157 | 0.121 | 0.55 | 0.414 | 0.462 | 0.463 | 0.42 | 0.537 | 0.479 | 0.418 | 0.567 | 0.393
HOP-62 | 0.48 | 0.768 | 0.224 | 0.22 |  | 0.201 | 0.147 | 0.169 | 0.626 | 0.593 | 0.587 | 0.694 | 0.646 | 0.407 | 0.51 | 0.417 | 0.399 | 0.471
NCI-H1651 | 0.532 | 0.485 | 0.349 | 0.174 | 0.164 | 0.142 | 0.107 | 0.117 | 0.602 | 0.528 | 0.433 | 0.631 | 0.507 | 0.202 | 0.175 | 0.181 | 0.178 | 0.16
CAL-12T |  | 0.798 | 0.357 | 0.101 | 0.494 | 0.44 | 0.288 | 0.297 | 0.515 | 0.323 | 0.339 | 0.436 | 0.388 | 0.61 | 0.692 | 0.71 | 0.718 | 0.756
NCI-H2126 |  | 0.601 | 0.457 | 0.427 | 0.388 | 0.387 | 0.303 | 0.27 | 0.491 | 0.393 | 0.455 | 0.515 | 0.491 | 0.978 | 0.921 | 0.806 | 0.903 | 0.875
NCI-H650 | 0.467 | 0.587 | 0.316 | 0.277 | 0.181 | 0.199 | 0.185 | 0.198 | 0.849 | 0.824 | 0.871 | 0.723 | 0.834 | 0.412 | 0.364 | 0.403 | 0.399 | 0.335
COR-L 105 | 0.773 | 0.859 | 0.565 | 0.166 | 0.644 | 0.513 | 0.552 | 0.425 | 0.413 | 0.357 | 0.366 | 0.424 | 0.403 | 0.846 | 0.673 | 0.7 | 0.637 | 0.701
LK-2 | 0.162 | 0.2 | 0.237 | 0.253 | 0.481 | 0.426 | 0.201 | 0.235 | 0.629 | 0.452 | 0.535 | 0.621 | 0.606 | 0.974 | 0.694 | 0.765 | 0.678 | 0.81
NCI-H2347 | 0.27 | 0.375 | 0.337 | 0.386 | 0.471 | 0.491 | 0.379 | 0.555 | 0.685 | 0.438 | 0.597 | 0.771 | 0.603 | 0.564 | 0.573 | 0.535 | 0.617 | 0.575
PC-14 | 0.286 | 0.498 | 0.243 | 0.117 | 0.129 | 0.163 | 0.167 | 0.123 | 0.652 | 0.514 | 0.738 | 0.545 | 0.623 | 0.249 | 0.27 | 0.299 | 0.321 | 0.271
NCI-H1793 |  | 0.251 | 0.255 | 0.198 |  | 0.528 | 0.173 | 0.209 | 0.32 |  | 0.286 | 0.307 | 0.258 | 0.863 |  | 0.688 | 0.894 | 0.94
NCI-H2170 | 0.546 | 0.767 | 0.255 | 0.174 | 0.173 | 0.184 | 0.121 | 0.102 | 0.382 | 0.291 | 0.293 | 0.32 | 0.302 | 0.602 | 0.539 | 0.648 | 0.59 | 0.536
LOU-NH91 | 0.688 | 0.688 | 0.386 | 0.365 | 0.712 | 0.477 | 0.321 | 0.153 | 0.531 |  | 0.498 | 0.548 | 0.506 | 0.893 | 0.679 | 0.842 | 0.913 | 0.882
NCI-H596 | 0.579 | 0.927 | 0.728 | 0.581 | 0.638 | 0.707 | 0.64 | 0.828 | 0.352 | 0.319 | 0.379 | 0.384 | 0.397 | 0.698 | 0.613 | 0.616 | 0.7 | 0.737
LXF-289 | 0.472 | 0.797 | 0.421 | 0.24 | 0.211 | 0.215 | 0.162 | 0.158 | 0.789 | 0.64 | 0.721 | 0.734 | 0.823 | 1.06 | 1.05 | 1.02 | 1.12 | 1.03
NCI-H727 | 0.338 | 0.499 | 0.391 | 0.428 | 0.723 | 0.454 | 0.66 | 0.656 | 0.52 | 0.451 | 0.354 | 0.5 | 0.273 | 0.679 | 0.603 | 0.337 | 0.702 | 0.808
